Data: patent publication US7834005B2, “Pyrrolobenzodiazepine derivatives, compositions comprising the same and methods related thereto” (The United States of America as represented by the …, priority 2003, dated 2010)
Like-named read-outs stand apart in the source and are kept apart here.

Legend:
CCRF-CEM = experiment: 60-cell-line screen: CCRF-CEM (Leukemia); type: cell-based
MOLT-4 = experiment: 60-cell-line screen: MOLT-4 (Leukemia); type: cell-based
RPMI-8226 = experiment: 60-cell-line screen: RPMI-8226 (Leukemia); type: cell-based
A549/ATCC = experiment: 60-cell-line screen: A549/ATCC (Non-Small Cell Lung); type: cell-based; settings: read-out: LC50 (the source's name)
Description: (§1) The concentration effects of the compound for various cancer cell lines are summarized in Tables 2-10, wherein GI50 is the drug concentration required to inhibit the growth of 50% of the cells, TGI is the drug concentration required for total growth inhibition, and LC50 is the drug concentration required to kill 50% of the cells.

EKVX = experiment: 60-cell-line screen: EKVX (Non-Small Cell Lung); type: cell-based; settings: read-out: LC50 (the source's name)
HOP-62 = experiment: 60-cell-line screen: HOP-62 (Non-Small Cell Lung); type: cell-based; settings: read-out: LC50 (the source's name)
HOP-92 = experiment: 60-cell-line screen: HOP-92 (Non-Small Cell Lung); type: cell-based; settings: read-out: LC50 (the source's name)
NCI-H226 = experiment: 60-cell-line screen: NCI-H226 (Non-Small Cell Lung); type: cell-based; settings: read-out: LC50 (the source's name)
NCI-H23 = experiment: 60-cell-line screen: NCI-H23 (Non-Small Cell Lung); type: cell-based
NCI-H322M = experiment: 60-cell-line screen: NCI-H322M (Non-Small Cell Lung); type: cell-based; settings: read-out: LC50 (the source's name)
NCI-H460 = experiment: 60-cell-line screen: NCI-H460 (Non-Small Cell Lung); type: cell-based; settings: read-out: LC50 (the source's name)
NCI-H522 = experiment: 60-cell-line screen: NCI-H522 (Non-Small Cell Lung); type: cell-based; settings: read-out: LC50 (the source's name)
COLO 205 = experiment: 60-cell-line screen: COLO 205 (Colon); type: cell-based
HCT-15 = experiment: 60-cell-line screen: HCT-15 (Colon); type: cell-based; settings: read-out: LC50 (the source's name)
KM12 = experiment: 60-cell-line screen: KM12 (Colon); type: cell-based; settings: read-out: LC50 (the source's name)
Description: as §1

SW-620 = experiment: 60-cell-line screen: SW-620 (Colon); type: cell-based; settings: read-out: LC50 (the source's name)
Description: as §1

SF-268 = experiment: 60-cell-line screen: SF-268 (Central Nervous System); type: cell-based; settings: read-out: LC50 (the source's name)
Description: as §1

SF-295 = experiment: 60-cell-line screen: SF-295 (Central Nervous System); type: cell-based; settings: read-out: LC50 (the source's name)
Description: as §1

SF-539 = experiment: 60-cell-line screen: SF-539 (Central Nervous System); type: cell-based; settings: read-out: LC50 (the source's name)
Description: as §1

SNB-19 = experiment: 60-cell-line screen: SNB-19 (Central Nervous System); type: cell-based; settings: read-out: LC50 (the source's name)
SNB-75 = experiment: 60-cell-line screen: SNB-75 (Central Nervous System); type: cell-based
U251 = experiment: 60-cell-line screen: U251 (Central Nervous System); type: cell-based; settings: read-out: LC50 (the source's name)
MALME-3M = experiment: 60-cell-line screen: MALME-3M (Melanoma); type: cell-based
M14 = experiment: 60-cell-line screen: M14 (Melanoma); type: cell-based; settings: read-out: LC50 (the source's name)
SK-MEL-2 = experiment: 60-cell-line screen: SK-MEL-2 (Melanoma); type: cell-based
SK-MEL-28 = experiment: 60-cell-line screen: SK-MEL-28 (Melanoma); type: cell-based; settings: read-out: LC50 (the source's name)
UACC-257 = experiment: 60-cell-line screen: UACC-257 (Melanoma); type: cell-based
UACC-62 = experiment: 60-cell-line screen: UACC-62 (Melanoma); type: cell-based
IGROV1 = experiment: 60-cell-line screen: IGROV1 (Ovarian); type: cell-based
OVCAR-3 = experiment: 60-cell-line screen: OVCAR-3 (Ovarian); type: cell-based
Description: as §1

OVCAR-4 = experiment: 60-cell-line screen: OVCAR-4 (Ovarian); type: cell-based
Description: as §1

OVCAR-5 = experiment: 60-cell-line screen: OVCAR-5 (Ovarian); type: cell-based
Description: as §1

OVCAR-8 = experiment: 60-cell-line screen: OVCAR-8 (Ovarian); type: cell-based
Description: as §1

SK-OV-3 = experiment: 60-cell-line screen: SK-OV-3 (Ovarian); type: cell-based
Description: as §1

786-0 = experiment: 60-cell-line screen: 786-0 (Renal); type: cell-based
ACHN = experiment: 60-cell-line screen: ACHN (Renal); type: cell-based
CAKI-1 = experiment: 60-cell-line screen: CAKI-1 (Renal); type: cell-based
SN12C = experiment: 60-cell-line screen: SN12C (Renal); type: cell-based
TK-10 = experiment: 60-cell-line screen: TK-10 (Renal); type: cell-based
UO-31 = experiment: 60-cell-line screen: UO-31 (Renal); type: cell-based
PC-3 = experiment: 60-cell-line screen: PC-3 (Prostate); type: cell-based
DU-145 = experiment: 60-cell-line screen: DU-145 (Prostate); type: cell-based
NCI/ADR-RES = experiment: 60-cell-line screen: NCI/ADR-RES (Breast); type: cell-based
Description: as §1

MDA-MB-231/ATCC = experiment: 60-cell-line screen: MDA-MB-231/ATCC (Breast); type: cell-based
Description: as §1

HS 578T = experiment: 60-cell-line screen: HS 578T (Breast); type: cell-based; settings: read-out: LC50 (the source's name)
Description: as §1

MDA-MB-435 = experiment: 60-cell-line screen: MDA-MB-435 (Breast); type: cell-based
MDA-N = experiment: 60-cell-line screen: MDA-N (Breast); type: cell-based
BT-549 = experiment: 60-cell-line screen: BT-549 (Breast); type: cell-based; settings: read-out: LC50 (the source's name)
Description: as §1

T-47D = experiment: 60-cell-line screen: T-47D (Breast); type: cell-based; settings: read-out: LC50 (the source's name)
[1] = read-out: LC50 (the source's name)

C=C1C[C@H]2C(O)Nc3cc(OCCCOc4cc5c(cc4OC)C(=O)N4CC(=C)C[C@H]4C(O)N5)c(OC)cc3C(=O)N2C1 (stereo partly shown) [Compound 16]
LC50 (CCRF-CEM): −6 Log10[C] (M)
CC50 (CCRF-CEM; [1]): 1000 nM
LC50 (MOLT-4): −7.15 Log10[C] (M)
CC50 (MOLT-4; [1]): 70.8 nM
LC50 (RPMI-8226): −7.08 Log10[C] (M)
CC50 (RPMI-8226; [1]): 83.2 nM
CC50 (A549/ATCC): 1000 nM
CC50 (EKVX): 1000 nM
CC50 (HOP-62): 1000 nM
CC50 (HOP-92): 1000 nM
CC50 (NCI-H226): 1000 nM
LC50 (NCI-H23): −7.17 Log10[C] (M)
CC50 (NCI-H23; [1]): 67.6 nM
CC50 (NCI-H322M): 1000 nM
CC50 (NCI-H460): 1000 nM
CC50 (NCI-H522): 1000 nM
LC50 (COLO 205): −6.6 Log10[C] (M)
CC50 (COLO 205; [1]): 251 nM
CC50 (HCT-15): 1000 nM
CC50 (KM12): 1000 nM
CC50 (SW-620): 1000 nM
CC50 (SF-268): 1000 nM
CC50 (SF-295): 1000 nM
CC50 (SF-539): 1000 nM
CC50 (SNB-19): 1000 nM
LC50 (SNB-75): −6.33 Log10[C] (M)
CC50 (SNB-75; [1]): 468 nM
CC50 (U251): 1000 nM
LC50 (MALME-3M): −7.15 Log10[C] (M)
CC50 (MALME-3M; [1]): 70.8 nM
CC50 (M14): 1000 nM
LC50 (SK-MEL-2): −7.14 Log10[C] (M)
CC50 (SK-MEL-2; [1]): 72.4 nM
CC50 (SK-MEL-28): 1000 nM
LC50 (UACC-257): 1000 nM
LC50 (UACC-62): −8.15 Log10[C] (M)
CC50 (UACC-62; [1]): 7.1 nM
LC50 (IGROV1): −6 Log10[C] (M)
LC50 (IGROV1; read-out: LC50): 1000 nM
LC50 (OVCAR-3): −6 Log10[C] (M)
CC50 (OVCAR-3; [1]): 1000 nM
LC50 (OVCAR-4): −6 Log10[C] (M)
CC50 (OVCAR-4; [1]): 1000 nM
LC50 (OVCAR-5): −6 Log10[C] (M)
CC50 (OVCAR-5; [1]): 1000 nM
LC50 (OVCAR-8): −6 Log10[C] (M)
CC50 (OVCAR-8; [1]): 1000 nM
LC50 (SK-OV-3): −6 Log10[C] (M)
LC50 (SK-OV-3; read-out: LC50): 1000 nM
LC50 (786-0): −6 Log10[C] (M)
CC50 (786-0; [1]): 1000 nM
LC50 (ACHN): −6 Log10[C] (M)
CC50 (ACHN; [1]): 1000 nM
LC50 (CAKI-1): −6 Log10[C] (M)
CC50 (CAKI-1; [1]): 1000 nM
LC50 (SN12C): −6 Log10[C] (M)
CC50 (SN12C; [1]): 1000 nM
LC50 (TK-10): −6 Log10[C] (M)
LC50 (TK-10; read-out: LC50): 1000 nM
LC50 (UO-31): −6 Log10[C] (M)
CC50 (UO-31; [1]): 1000 nM
LC50 (PC-3): −6 Log10[C] (M)
CC50 (PC-3; [1]): 1000 nM
LC50 (DU-145): −6 Log10[C] (M)
CC50 (DU-145; [1]): 1000 nM
LC50 (NCI/ADR-RES): 1000 nM
LC50 (MDA-MB-231/ATCC): 1000 nM
CC50 (HS 578T): 1000 nM
LC50 (MDA-MB-435): −7.07 Log10[C] (M)
CC50 (MDA-MB-435; [1]): 85.1 nM
LC50 (MDA-N): −7.24 Log10[C] (M)
CC50 (MDA-N; [1]): 57.5 nM
CC50 (BT-549): 1000 nM
CC50 (T-47D): 1000 nM
LC50 (HL-60(TB); Leukemia): −7.55 Log10[C] (M)
CC50 (HL-60(TB); read-out: LC50, Leukemia): 28.2 nM
